Values of other authors as cited in patent publication US20150209327A1, “METHODS FOR THE TREATMENT OF OBESITY USING APREMILAST” (Celgene Corporation, priority 2014, published 2015).

Conditions: treatment of COPD; cited from earlier work

Compound: O=C(Nc1c(Cl)cncc1Cl)c1ccc(OC(F)F)c(OCC2CC2)c1 [roflumilast]
- weight change as a side effect: Weight decrease was observed
